Test results taken from patent US11236302B2, “Methods and compositions for producing stem cell derived dopaminergic cells for use in treatment of neurodegenerative diseases” (BIOLAMINA AB, priority 2015, dated 2022).

Legend:
RC17 hESCs = experiment: Adherent differentiation of ventral mesencephalon progenitors on full-length laminin subtypes, day 0-11; format: cell-based, human; conditions: for yield of neural cells relative to a standard yield of 100%: laminin as coating, day 0-11 of the protocol
From the text: To develop a GMP-compatible differentiation protocol for high and reproducible yield of caudilised mesDA ventral mesencephalon progenitors that would result in good graft outcome, a fully GMP-derived hES cell line RC17 from Roslin cells (hPS Creg #RCe021-A) was used. Previous research grade ventral mesencephalon differentiation protocols have implemented steps of embryoid body (EB) formation or culturing on MATRIGEL®, both of which pose problems in GMP adaptation due to difficulties in reproducibility and the content of undefined animal-derived component, respectively.
Relative to a standard yield of 100%, LN-111 yielded 170%, LN-421 yielded 294%, LN-511 yielded 223%, and LN-521 yielded 208%. RC17 cells were differentiated according to the methods described herein, but on plates that were coated with laminin-121 instead of laminin-111. FIG. 8C compares the yields, and the yields are about equal to each other, i.e. LN-121 works about as well as LN-111 as a substrate.

undifferentiated hESCs = experiment: Plating of undifferentiated hESCs on laminin matrix in pluripotency medium or differentiation medium; format: cell-based, human; conditions: laminin as matrix
Description: When the same number of cells was plated onto LN-111 in B27 medium, the cultures remained adherent and grew to confluency after 7 days of differentiation while showing rapid downregulation of pluripotency markers.

Substance | yield of neural cells relative to a standard yield of 100% (RC17 hESCs) | support of growth of pluripotent stem cells versus neural cells (undifferentiated hESCs) | yield of dopaminergic cells on LN-121 compared with LN-111 (RC17 hESCs; RC17 cells, plates coated with laminin-121 instead of laminin-111)
LN-421: the protein formed by joining α4, β2 and γ1 chains together | 294% |  | 
LN-521: the protein formed by joining α5, β2 and γ1 chains together | 208% | efficiently support growth of hPSCs | 
LN-511: the protein formed by joining α5, β1 and γ1 chains together | 223% | efficiently support growth of hPSCs | 
LN-121: the protein formed by joining α1, β2 and γ1 chains together |  |  | about equal
LN-111: the protein formed by joining α1, β1 and γ1 chains together | 170% | selectively supported the growth of neural cells but not pluripotent stem cells | 
